Test results taken from article PMC3793977, “High-Throughput Screening (HTS) and Hit Validation to Identify Small Molecule Inhibitors with Activity against NS3/4A proteases from Multiple Hepatitis C Virus Genotypes” (PLoS ONE, 2013).
Several values for one entry are separate records, joined by “and”; a condition that tells them apart may be missing. Equal values may be shown once.

Tests used:
[1] = biological target: T1, full-length NS3/4A protease (genotype 1b) (Hepatitis C virus genotype 1b, UniProt Q9WMX2); assay: biochemical; details: purified full-length NS3/4A, genotype 1b wild-type; read-out: IC50 Full-length NS3/4A
T1 construct: wild-type HCV NS3 (HCV polyprotein residues 1027–1657); His-tag (N); made in house
Protocol: All assays were done in duplicate in black 384-well plates (Matrix Technologies). […] 200 nL of 10 mM compound (50 µM final concentrations) were then added and incubated for 5 minutes. Enzyme reactions were initiated with 10 µL of substrate Ac-DE-Dap(QXL520)-EE-Abu-ψ-[COO]AS-C(5-FAMsp)-NH2 (Anaspec) (1 µM final concentration), incubated for 6 minutes, and quenched by 10 µL of 10% SDS as a stop solution. Fluorescence intensity was monitored with a POLARstar OPTIMA microplate reader (BMG LABTECH). Each plate contained a total of 32 positive and 32 negative controls.
A series of compound concentrations (0 to 200 µM final concentration at 2-fold serial dilution) in 100% DMSO were prepared in a 384-well plate. 20 µL of enzyme solution was distributed to wells, and 0.5 µL of varying concentration of compounds were added and incubated for 5 minutes. The enzyme reaction was initiated by adding 5 µL of the substrate, and its activity was continuously monitored for 6 minutes. The IC50 values were calculated by fitting with the Hill equation (1), with OriginPro 8.5 (OriginLab, Inc.) where y is percent inhibition, x is inhibitor concentration, n is the slope of the concentration–response curve (Hill slope), and Vmax is maximal inhibition from two to four independent assays. [drawing 1] (1)

full-length NS3/4A [2] = biological target: T2, full-length NS3/4A (Hepatitis C virus genotype 1b, UniProt Q9WMX2); assay: SPR binding assay (dissociation equilibrium constant KD); details: for SPR binding to NS3/4A, double referenced: double referenced with blank and unrelated reference protein
T2 construct: wild-type HCV NS3 (HCV polyprotein residues 1027–1657); His-tag (N); made in house
Protocol: The full-length NS3/4A enzyme was prepared in a storage buffer (50 mM HEPES, pH 7.6, 500 mM NaCl, 1 mM DTT, 0.2% Triton X-100, and 20% glycerol) and immobilized on a CM5 sensor chip using standard amine-coupling at 25°C with running buffer HBS-P (10 mM HEPES, 150 mM NaCl, 0.05% surfactant P-20, pH 7.4) using a Biacore T100 instrument. Flow channels 1 and 3 were activated by 1-ethyl-3-(3-dimethylaminopropyl) carbodiimide hydrocholoride (EDC)/N-hydroxy succinimide (NHS) mixture, and the activated surface was blocked by ethanolamine (pH 8.5) as controls. The NS3/4A enzyme was diluted in 10 mM sodium acetate (pH 5.0), and immobilized to flow channel 4 after sensor surface activation with EDC/NHS with a 7 min injection followed by ethanolamine blocking on unoccupied surface area. NS3/4A immobilization level was ∼8,500 response units (RU). An unrelated reference protein (92 kDa) was also immobilized to flow channel 2 as another control to be compared with NS3/4A (74.6 kDa). Fifteen initial hit compounds were prepared as 10 mM DMSO stock solutions. Compound solutions with a series of increasing concentrations (0–200 µM at 1.5-fold dilution) were applied to all four channels at a 10 µL/min flow rate at 25°C. Sensorgrams were analyzed using Biaevaluation software 2.0.3, and response unit difference (ΔRU) values at each concentration were measured during the equilibration phase. Data were either single referenced with a blank (enthanolamine) or double referenced with both blank and reference protein RU values. SigmaPlot 11.0 was used to fit the data to a single rectangular hyperbolic curve to determine KD values. The hyperbola function, y = ymax·x/(KD+x), was used to plot response units and corresponding concentration, where y is the response, ymax is the maximum response, and x is the compound concentration.

[3] = biological target: T3, full-length NS3/4A enzyme complex (Hepatitis C virus genotype 1b, UniProt Q9WMX2); assay: Reversibility of inhibition by dilution; assay type: biochemical; details: dilution 25-fold and 50-fold
T3 construct: wild-type HCV NS3 (HCV polyprotein residues 1027–1657); His-tag (N); made in house
Protocol: The reversibility of hit compounds was determined by dilution. The full-length NS3/4A enzyme complex was prepared as 20-fold (200 nM) of the assay concentration and was incubated with screened compounds at 20-fold IC50 value or slightly higher concentration for 30 minutes at room temperature in the same assay condition as the primary screen in a final volume of 100 µL. The concentration of enzyme and testing compound was optimized to yield at least 95% inhibition before dilution. The NS3/4A enzyme with the same volume of DMSO in place of each compound was also prepared as a control. NS3/4A activity was measured in the same way as the IC50 measurements. Then enzyme-inhibitor solution was diluted 25-fold and 50-fold and incubated for 30 minutes before measuring the percent recovery of the enzyme activity. All reversibility assays were done in triplicate.

full-length NS3/4A [4] = biological target: T2, full-length NS3/4A; assay: Type (mechanism) of enzyme inhibition, kinetic analysis; assay type: biochemical
Protocol: Full-length NS3/4A activity was monitored in the same way as the primary screening with varying concentration of both inhibitor compounds and substrate (0–8 µM). The concentration of compounds varied from 0 to 20 µM at 1.5-fold dilution factor.

[5] = biological target: T4, NS3/4A protease genotype 1a (Hepatitis C virus genotype 1a, UniProt P27958); assay: Inhibition assay with NS3/4A from genotype 1a; assay type: biochemical; details: IC50 NS3/4A genotype 1a
T4 construct: against the NS3/4A protease domains from three additional HCV genotypes (1a, 2a, and 4d); purchased Anaspec
Protocol: (§1) The inhibitory activity of the final hit compounds from HTS were tested against three other HCV genotypes (1a, 2a, and 4d), along with a control (genotype 1b) and five NS3 drug-resistant mutants. Eight full-length NS3 mutants (V36M, R155K, A156T, A156S, 156V, V36A, T54A, and R155T) were generated by mutagenesis and purified, and the three HCV NS3/4A protease genotypes were purchased from Anaspec. Unfortunately the enzyme activities of the three mutants V36A, T54A, and R155T were much less than that of the rest of the mutants and were insufficient for testing, therefore mutant studies were done with the five active mutants. Continuous kinetic assays were performed against all hit compounds in the same way as the wild-type NS3/4A. As a control, full-length NS3/4A (genotype 1b) was tested under the same conditions for direct comparison for each plate.

[6] = biological target: T5, NS3/4A protease genotype 2a (Hepatitis C virus genotype 2a, UniProt Q99IB8); assay: Inhibition assay with NS3/4A from genotype 2a; assay type: biochemical; details: IC50 Purified NS3/4A Sub-genotype 2a, genotype 2a
T5 construct: against the NS3/4A protease domains from three additional HCV genotypes (1a, 2a, and 4d); purchased Anaspec
Protocol: as §1

[7] = biological target: NS3/4A protease genotype 4d (Hepatitis C virus subtype 4d, UniProt Q1ZZ56); assay: Inhibition assay with NS3/4A from genotype 4d; assay type: biochemical
Protocol: as §1

[8] = biological target: T6, full-length NS3/4A genotype 1b mutant A156T (Hepatitis C virus genotype 1b, UniProt Q9WMX2, A1182T); assay: Inhibition assay with drug-resistant mutant A156T; assay type: biochemical; details: in words
T6 construct: wild-type HCV NS3 (HCV polyprotein residues 1027–1657); His-tag (N); made in house
Protocol: (§2) The full-length genes of wild-type HCV NS3 (HCV polyprotein residues 1027–1657) with a his-tag at the N-terminus and NS4A (residues 1658–1711) with no tag were cloned, co-expressed, and purified as described. Eight NS3 drug resistant mutants (V36M, V36A, T54A, R155K, R155T, A156T, A156S, and 156V) were generated by mutagenesis using full-length, wild-type NS3-containing recombinant plasmid (pETDuet-1/FL NS3/4A) as a template. The over-expression and purification of all mutants were performed by the same method as the wild-type with minor modifications.
as §1, with “As a control, full-length NS3/4A (genotype 1b) was tested under the same conditions for direct comparison for each plate.” left out

[9] = biological target: T7, full-length NS3/4A genotype 1b mutant A156S (Hepatitis C virus genotype 1b, UniProt Q9WMX2, A1182S); assay: Inhibition assay with drug-resistant mutant A156S; assay type: biochemical; details: in words
T7 construct: wild-type HCV NS3 (HCV polyprotein residues 1027–1657); His-tag (N); made in house
Protocol: as §2
as §1, with “As a control, full-length NS3/4A (genotype 1b) was tested under the same conditions for direct comparison for each plate.” left out

[10] = biological target: T8, full-length NS3/4A genotype 1b mutant A156V (Hepatitis C virus genotype 1b, UniProt Q9WMX2, A1182V); assay: Inhibition assay with drug-resistant mutant A156V; assay type: biochemical; details: genotype 1b full-length mutant
T8 construct: wild-type HCV NS3 (HCV polyprotein residues 1027–1657); His-tag (N); made in house
Protocol: as §2
as §1, with “As a control, full-length NS3/4A (genotype 1b) was tested under the same conditions for direct comparison for each plate.” left out

[11] = biological target: T9, full-length NS3/4A genotype 1b mutant R155K (Hepatitis C virus genotype 1b, UniProt Q9WMX2, R1181K); assay: Inhibition assay with drug-resistant mutant R155K; assay type: biochemical; details: in words
T9 construct: wild-type HCV NS3 (HCV polyprotein residues 1027–1657); His-tag (N); made in house
Protocol: as §2
as §1, with “As a control, full-length NS3/4A (genotype 1b) was tested under the same conditions for direct comparison for each plate.” left out

[12] = biological target: T10, full-length NS3/4A genotype 1b mutant V36M (Hepatitis C virus genotype 1b, UniProt Q9WMX2, V1062M); assay: Inhibition assay with drug-resistant mutant V36M; assay type: biochemical; details: genotype 1b full-length mutant
T10 construct: wild-type HCV NS3 (HCV polyprotein residues 1027–1657); His-tag (N); made in house
Protocol: as §2
as §1, with “As a control, full-length NS3/4A (genotype 1b) was tested under the same conditions for direct comparison for each plate.” left out

Trypsin = biological target: T11, Trypsin (Homo sapiens, UniProt P07477); assay: Inhibitor selectivity assay, trypsin (fluorometric); assay type: biochemical
T11 construct: purchased Sigma
Protocol: (§3) To test for selectivity, two human serine proteases, Trypsin and Chymotrypsin (Sigma), were tested with the top two hit compounds from HTS using a fluorometric assay. The fluorogenic substrates used in this study were N-benzoyl-L-Arg-7-amido-4-methylcoumarin (Sigma) and N-succinyl-Ala-Ala-Phe-7-amido-4- methylcoumarin (Sigma) for trypsin and chymotrypsin, respectively. All assays were performed in 384-well black plates (Corning) in a total volume of 24 µL of PBS (pH 7.4) buffer containing 0.01% Triton, 0.1 mg/mL BSA, and 2 mM GSH in triplicate. A series of compound concentrations (0 to 200 µM final concentration at 2-fold serial dilution) in 100% DMSO was prepared in a 384-well plate. 20 µL of trypsin (0.01 mg/mL) and chymotrypsin (0.0001 mg/mL) solutions were distributed into wells, and 0.5 µL of varying concentration of compounds were added and incubated for 10 minutes. The enzyme reaction was initiated by adding 5 µL of the substrate (50 µM final concentration), and fluorescence intensity was continuously monitored at excitation/emission wavelengths of 350 nm/460 nm for 10 minutes.

Chymotrypsin = biological target: T12, Chymotrypsin (Homo sapiens, UniProt P17538); assay: Inhibitor selectivity assay, chymotrypsin (fluorometric); assay type: biochemical; details: human chymotrypsin
T12 construct: purchased Sigma
Protocol: as §3

T12 sequence (P17538 19-263): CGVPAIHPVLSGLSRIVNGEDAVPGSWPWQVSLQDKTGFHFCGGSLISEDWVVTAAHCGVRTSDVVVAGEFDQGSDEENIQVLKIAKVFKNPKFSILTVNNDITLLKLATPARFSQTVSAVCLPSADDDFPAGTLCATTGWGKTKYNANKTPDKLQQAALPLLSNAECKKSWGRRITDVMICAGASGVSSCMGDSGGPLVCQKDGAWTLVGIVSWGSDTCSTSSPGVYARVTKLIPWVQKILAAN

Compound | IC50 [1] | Kd (full-length NS3/4A [2]; SPR, 25°C, single rectangular hyperbolic fit) | SPR binding to NS3/4A, double referenced (full-length NS3/4A [2]) | reversibility of inhibition [3] | Ki (full-length NS3/4A [4]; competitive model, with respect to substrate) | mechanism of inhibition (full-length NS3/4A [4]; with respect to the substrate, best fit model) | IC50 [5] | IC50 [6] | IC50 [7] | activity against mutant A156T compared with wild-type [8] | activity against mutant A156S compared with wild-type [9] | IC50 [10] | activity against mutant R155K compared with wild-type [11] | IC50 [12] | inhibition at 100 µM (Trypsin; 100 µM compound, read-out: Trypsin % Inh at 100 µM) | IC50 (Trypsin; human trypsin) | IC50 (Chymotrypsin)
CC1(C)CCc2cc(/C=C(\C#N)C(=O)c3cccc(C(F)(F)F)c3)ccc2O1 [Compound 6] | 7.6 ± 0.6 µM | 8.3 ± 1.9 µM | specific binding | reversible |  |  |  |  |  |  |  |  |  |  |  |  | 
CC(C)C(=O)N1CCc2ccc(NC(=O)COc3ccc(F)cc3)cc2C1 [Compound 13] | 20.2 ± 2.2 µM |  | specific binding |  | 19.1 µM | competitive inhibitors | 1.7 µM and < 20 µM | < 20 µM | < 20 µM | decreased in activity | decreased in activity | < 20 µM | completely lost activity | < 20 µM | 5.1% | > 100 µM | 110 ± 32 µM
